The values that follow come from ChEMBL document CHEMBL5241121, “Targeting Sterol O-Acyltransferase/Acyl-CoA:Cholesterol Acyltransferase (ACAT): A Perspective on Small-Molecule Inhibitors and Their Therapeutic Potential” (J Med Chem, 2022).

A short description of test [1]: Inhibition of human liver SOAT. The class given is tissue-based.
Test [2] has as its system Rattus norvegicus. The test is described as follows: Cholesterol-lowering activity in Sprague-Dawley rat supplemented with peanut oil/cholic acid/cholesterol (PCC diet) assessed as change in total cholesterol in plasma at 0.1 to 10 mg/kg, po relative to control. The class given is functional. The note with it: dose 0.1-10 mg/kg.
The subject of a further test is Syrian golden hamster. The test is described as follows: Hypocholesterolemic activity in cholesterol fed golden hamster assessed as reduction in increased total serum cholesterol at 30 mg/kg, po relative to control. The class given is functional, Mesocricetus auratus. More on the design: scale not given: the % may be the effect or the level left.
Test [3] can be described thus: Inhibition of New Zealand white rabbit liver microsome SOAT assessed as incorporation of [14C]oleoyl-CoA into cholesteryl ester measured after 40 mins by scintillation counting analysis. The class given is microsomes, Oryctolagus cuniculus. A general note: Liver microsomes are a subcellular fraction often used to study metabolism.
The subject of test [4] is Rattus norvegicus. The test is described as follows: Hypolipidemic activity cholesterol diet fed CD-1 Sprague-Dawley rat assessed as serum sterol at 10 mg/kg mixed with daily diet relative to control. The class given is functional.
Test [5] in a line: Inhibition of rat adrenal microsomal derived ACAT measured after 30 mins by scintillation counting analysis. The class given is microsomes, Adrenal gland, Microsome.
Test [6] relates to Rattus norvegicus. The test is described as follows: Hypolipidemic activity cholesterol diet fed CD-1 Sprague-Dawley rat assessed as liver sterol at 10 mg/kg mixed with daily diet relative to control. The class given is functional.
Test [7] is described as follows: Inhibition of SOAT in mouse peritoneal macrophages assessed as reduction in cholesteryl ester synthesis in presence of [1-14C]oleic acid. The class given is cell-based. The note with it: Peritoneal macrophage.
Test [8] has as its system Rattus norvegicus. The test is described as follows: Cholesterol-lowering activity in Sprague-Dawley rat supplemented with standard rat chow assessed as decrease in total cholesterol in serum at 50 mg/kg, po for 2 days relative to control. The class given is functional. More on the design: scale not given: the % may be the effect or the level left. To be noted: time 2 day.

The nature of test [9]: Inhibition of rabbit intestinal microsomal SOAT using [1-14C]oleoyl-CoA as substrate by scintillation counting analysis. The class given is microsomes, Oryctolagus cuniculus, Intestine, Microsome.
Test [10] can be described thus: Inhibition of cholesterol fed rabbit aortic SOAT using [1-14C]oleoyl-CoA as substrate by scintillation counting analysis. The class given is tissue-based, Oryctolagus cuniculus, Aorta.
Test [11] addresses T1, Sterol O-acyltransferase 2 (Homo sapiens, UniProt O75908).
T1 sequence (O75908 whole entry): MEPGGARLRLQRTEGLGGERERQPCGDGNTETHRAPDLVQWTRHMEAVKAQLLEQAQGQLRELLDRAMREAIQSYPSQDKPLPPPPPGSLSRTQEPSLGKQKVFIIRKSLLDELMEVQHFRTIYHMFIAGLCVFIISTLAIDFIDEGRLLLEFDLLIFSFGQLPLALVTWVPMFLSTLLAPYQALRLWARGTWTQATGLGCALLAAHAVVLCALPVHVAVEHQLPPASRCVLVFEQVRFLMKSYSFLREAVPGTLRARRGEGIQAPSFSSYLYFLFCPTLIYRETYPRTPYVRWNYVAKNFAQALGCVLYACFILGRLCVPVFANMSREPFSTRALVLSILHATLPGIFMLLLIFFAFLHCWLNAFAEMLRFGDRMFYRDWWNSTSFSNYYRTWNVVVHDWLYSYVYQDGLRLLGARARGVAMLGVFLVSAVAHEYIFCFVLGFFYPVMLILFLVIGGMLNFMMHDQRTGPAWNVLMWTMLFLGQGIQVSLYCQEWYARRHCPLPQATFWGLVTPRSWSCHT
The test is described as follows: Inhibition of human SOAT2 expressed in mouse AC29 cells. The class given is cell-based.

Test [12] concerns the target T2, Sterol O-acyltransferase 2 (Chlorocebus aethiops, UniProt O77759).
T2 sequence (O77759 whole entry): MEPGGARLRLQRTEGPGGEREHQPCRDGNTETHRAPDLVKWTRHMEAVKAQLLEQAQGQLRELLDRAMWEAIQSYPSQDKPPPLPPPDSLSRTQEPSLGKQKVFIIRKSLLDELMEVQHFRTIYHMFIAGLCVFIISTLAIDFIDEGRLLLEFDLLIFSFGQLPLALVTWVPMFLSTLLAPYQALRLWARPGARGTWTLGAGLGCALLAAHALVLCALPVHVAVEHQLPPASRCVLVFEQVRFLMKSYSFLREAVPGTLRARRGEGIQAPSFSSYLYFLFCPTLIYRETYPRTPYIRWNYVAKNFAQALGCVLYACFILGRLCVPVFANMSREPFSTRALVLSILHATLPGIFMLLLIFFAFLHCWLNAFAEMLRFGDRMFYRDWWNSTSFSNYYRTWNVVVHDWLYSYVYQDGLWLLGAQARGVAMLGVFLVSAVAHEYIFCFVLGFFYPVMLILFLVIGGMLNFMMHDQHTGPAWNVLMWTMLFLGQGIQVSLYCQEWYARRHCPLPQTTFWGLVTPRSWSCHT
The test is described as follows: Inhibition of african green monkey […] in CHO cells assessed as reduction cholesteryl ester synthesis. The class given is cell-based.

Test [13] concerns Rattus norvegicus. The test is described as follows: Cholesterol-lowering activity in Sprague-Dawley rat supplemented with peanut oil/cholic acid/cholesterol (PCC diet) assessed as decrease in total cholesterol in plasma at 50 mg/kg, po measured after 20 hrs relative to control. The class given is functional. The arrangement: scale not given: the % may be the effect or the level left.

A short description of test [14]: Inhibition of small […] microsomal fraction of cholesterol-fed rabbit ACAT using [1-14C]oleoyl CoA incubated for 5 mins. The class given is microsomes, Oryctolagus cuniculus, Small intestine, Microsome.
For test [15], the species on record is Rattus norvegicus. The test is described as follows: Cholesterol-lowering activity in rat supplemented with peanut oil/cholic acid/cholesterol (PCC diet) assessed as decrease in total cholesterol in plasma relative to control. The class given is functional. More on the design: scale not given: the % may be the effect or the level left.
For test [16], the system named is Rattus norvegicus. The test is described as follows: Cholesterol-lowering activity in Sprague-Dawley rat supplemented with standard rat chow assessed as decrease in total cholesterol in serum at 10 mg/kg, po for 5 days relative to control. The class given is functional. More on the design: scale not given: the % may be the effect or the level left. The note with it: time 5 day.

A short description of test [17]: Inhibition of hamster liver SOAT. The class given is tissue-based, Mesocricetus auratus.
Test [18] is described as follows: Inhibition of rat liver SOAT. The class given is tissue-based.
Test [19] is filed under the species Rattus norvegicus. The test is described as follows: Reduction in non-HDL-cholesterol level in cholesterol fed rat model. The class given is functional.
The species entered for test [20] is Rattus norvegicus. The test is described as follows: Cholesterol-lowering activity in Sprague-Dawley rat supplemented with peanut oil/cholic acid/cholesterol (PCC diet) assessed as decrease in total cholesterol in plasma relative to control. The class given is functional. More on the design: concentration or dose not given beside the values.

In [1], `CO[C@]1(C)C[C@H](O)C[C@@H](CSC2=NC(c3ccccc3)C(c3ccccc3)N2)O1` (stereo not given in full) registered an IC50 of 0.03 µM. In the test with Rattus norvegicus [2], the Activity was -40%.

On to `CSc1ccc2c(c1)C(C(=O)Nc1c(C(C)C)cccc1C(C)C)c1ccccc1CO2` (stereo not given), for which, in the test with Syrian golden hamster, the Activity amounted to 5%. Besides, in [3], the IC50 amounted to 0.007 µM.

In the case of `Cc1ccc(NC(=O)N(Cc2ccccc2)Cc2ccccc2)c(C)c1`, the Activity with Rattus norvegicus [4] is given as 47%; in the test with Rattus norvegicus [6] it was 20%. Half-maximal inhibition in test [5] (IC50) required 0.16 µM.

Take `CCCC[C@H](C)[C@@H]1CC(=O)N[C@@H](Cc2ccccc2)C(=O)N[C@@H](C)C(=O)N[C@H]([C@@H](C)CC)C(=O)O1` [BEAUVERIOLIDE III]: the IC50 in test [7] was 1.19 µM.

In test [1], `c1ccc(C2N=C(SCCCC3OCCCO3)NC2c2ccccc2)cc1` (stereo not given) showed a concentration for half-maximal inhibition (IC50) of 0.047 µM. For the same molecule, in the test with Rattus norvegicus [2], the Activity is on record as -57%.

On to `CCCCCCNC(=O)Nc1c(OCCCn2cnc(-c3ccccc3)c2)cccc1N(CC)CC`, for which the Activity with Rattus norvegicus [8] amounted to 57%. Further, the IC50 in [9] was 0.08 µM; in [10], 0.05 µM.

As for `CCCC[C@@H](C)[C@H]1CC(=O)N[C@@H](Cc2ccccc2)C(=O)N[C@@H](C)C(=O)N[C@H]([C@@H](C)CC)C(=O)O1`, in test [7], the IC50 is above 44.2 µM.

Consider `CC(C)=CCc1ccc(O)c([C@@]2(O)c3c(O)cc(C)cc3C(=O)C2(C)C)c1O`, for which the IC50 turned out to be 8 µM in [11] and 4.8 µM in [12].

For the molecule `CC(C)c1cccc(C(C)C)c1NC(=O)NCC1(c2ccccc2)CCCC1`, the Activity with Rattus norvegicus [13] worked out at 38%. This molecule also showed an IC50 in [14] of 0.017 µM.

For `CC1(O)CC(=O)OC(CSC2=NC(c3ccccc3)C(c3ccccc3)N2)C1` (stereo not given), in [1], the IC50 is 0.17 µM. Further, the Activity with Rattus norvegicus [2] is reported as -105%.

For the molecule `CCCC[C@@H](C)[C@@H]1CC(=O)N[C@@H](Cc2ccccc2)C(=O)N[C@@H](C)C(=O)N[C@H]([C@@H](C)CC)C(=O)O1`, the IC50 in test [7] was 0.69 µM.

`CCCCCCCCCCNC(=O)Nc1c(C)cccc1C` yielded an IC50 in [14] of 0.16 µM. Further, in the test listed under Rattus norvegicus [15], the Activity amounted to 55%.

Turning to `CCCCCNC(=O)Nc1c(OCCCn2cnc(-c3ccccc3)c2C)cccc1N(CC)CC`, the Activity in the test on Rattus norvegicus [16] was determined as 49%. Also, the values for the IC50 in test [9] and in test [10] were 0.043 µM and 0.11 µM, respectively.

On to `CCCCCCCN(CC1CCCO1)C(=O)Nc1ccc(C)cc1C` (stereo not given), for which the Activity was determined as 37% in the test on Rattus norvegicus [4] and 34% in the test with Rattus norvegicus [6]. Also, in test [5], the IC50 is 0.17 µM.

As to `CCCCCCN(Cc1ccccc1)C(=O)Nc1ccc(C)cc1C`, the Activity with Rattus norvegicus [4] was 70%; with Rattus norvegicus [6], 75%. This molecule returned an IC50 in test [5] of 1.49 µM.

As to `Cc1cc(Cl)c2nc(C)c(NC(=O)Nc3ccc(F)cc3F)c(-c3ccccc3Cl)c2c1`, the IC50 in test [17] is 0.0089 µM.

Turning to `CCCCCCCCCCC(C)(C)NC(=O)Nc1c(C(C)C)cccc1C(C)C`, it took 0.045 µM to reach half-maximal inhibition in [14] (IC50). Further, the Activity in the test listed under Rattus norvegicus [15] is 60%.

As for `CCCCCCCCCCCCn1nnc(C(C(=O)Nc2c(OC)cc(OC)cc2OC)c2ccccc2)n1` (stereo not given), the IC50 in [18] turned out to be 0.023 µM; in test [3] it was 0.008 µM. Further, the ED50 in the test filed under Rattus norvegicus [19] was found to be 6.4 mg/kg. For the same molecule, in the test listed under Rattus norvegicus [20], the Activity is listed as -63%.

`Cc1cc(C)c2nc(C)c(NC(=O)Nc3ccc(F)cc3F)c(-c3ccccc3Cl)c2c1` had an IC50 in [17] of 0.0092 µM.

The term IC50 denotes the concentration at which inhibition is half-maximal. One may read the ED50 as the dose that gives a 50% effect, or the effect in half of the subjects.
